According to patent US4230705A, “6-Phenyl-1,2,4-triazolo[4,3-b]pyridazines and their uses in treating anxiety” (American Cyanamid Company, priority 1976, dated 1980):

How the values were obtained:
[1] = system: Clonic Seizures Caused By Pentylenetetrazole; test: Protection against clonic seizures caused by pentylenetetrazole in rats; assay type: in vivo; settings: Rattus norvegicus; oral, 2% starch vehicle; pentylenetetrazole 21 to 23 mg./kg. intravenously at estimated time of peak effect; protection of 50% of rats; read-out: Medium Effective Oral Dose mg./kg. ED50 (converted)
Procedure: The anti-anxiety properties of the novel compounds of the present invention have been established in a test which indicates anxiolytic activity by the measure of protection from convulsions resulting from the administration of pentylenetetrazole. Graded dose levels of the compounds of this invention were administered orally, in a 2% starch vehicle, to groups of at least 5 rats. At the estimated time of peak effect, the rats were treated intravenously with pentylenetetrazole at a dose of 21 to 23 mg./kg. of body weight. This dose is estimated to cause clonic seizures in 99% of unprotected rats. The effective dose (ED50) of the test compound for protection of 50% of the animals is calculated by the method of D. H. Finney in "Statistical Methods in Biological Assay", Second Edition, Hafner Publishing Co., New York, 1964, pp. 456-457. Representative results are given in Table I which follows in comparison with chlordiazepoxide or meprobamate, which were tested in exactly the same manner. It has been reported [R. T. Hill and D. H. Tedeschi, "Animal Testing and Screening Procedures in Evaluating Psychotropic Drugs" in "An Introduction to Psychopharmacology", Eds. R. R. Rech and K. E. Moore, Raven Press, New York, pp. 237-288 (1971)] that there is a high degree of correlation between antagonism of pentylenetetrazole seizures in rats and anti-anxiety effects in higher warm-blooded animals.

[2] = system: conflict situation in rats; test: Non-conditioned passive avoidance (conflict) procedure in rats; assay type: in vivo, Sprague-Dawley rats; settings: Rattus norvegicus; oral, 2% starch vehicle; 9 or more shocks in 5 minute test period; rats deprived of water 48 hours and food 24 hours; read-out: Median Effective Dose (ED50 mg./kg.)
Procedure: Another test which has been used to assess anti-anxiety effects is a non-conditioned passive avoidance procedure described by J. R. Vogel, B. Beer and D. E. Clody, "A Simple and Reliable Conflict Procedure for Testing Anti-Anxiety Agents", Psychopharmacologia, Vol. 21, pp. 1-7 (1971). A conflict situation is induced in rats by a modification of this method. To groups of six naive Sprague-Dawley rats (200-220 grams), previously deprived of water for forty-eight hours and food for 24 hours, are administered graded oral doses of test compound suspended in 2% starch vehicle also containing 2 drops of polyethylene glycol and polysorbate 80, or vehicle alone (controls). At the time of peak effect each rat is placed in a plexiglass box fitted with a drinkometer circuit connected between the stainless steel grid floor and a stainless steel drinking tube inserted in a hole in one of the walls of the box. […] The number of shocks received by the rat during a 5 minute test period is recorded. […]

CCCC(C)(COC(N)=O)COC(N)=O [Meprobamate]
ED50 [1]: 22 mg/kg

CNC1=Nc2ccc(Cl)cc2C(c2ccccc2)=[N+]([O-])C1 [Chlordiazepoxide]
ED50 [1]: 2.5 mg/kg
ED50 [2]: 9.6 mg/kg

c1ccc(-c2ccc3nncn3n2)cc1 [6-phenyl-1,2,4-triazolo[4,3-b]pyridazine]
ED50 [1]: 9.5 mg/kg

Cc1nnc2ccc(-c3ccccc3)nn12 [3-methyl-6-phenyl-1,2,4-triazolo[4,3-b]pyridazine]
ED50 [1]: 3 mg/kg
ED50 [2]: 100 mg/kg
